This note sets out measurements from paper PMC6317055, “Metabolites from the Paracel Islands Soft Coral Sinularia cf. molesta” (Marine Drugs, 2018).

What is called IC50 is the midpoint of a concentration-inhibition curve.

Data set [1] can be described thus: Cytotoxicity assay, SRB method, HeLa. The class given is cell-based. The following applies: human, adriamycin positive control, read-out: cytotoxicity IC50 against HeLa cell lines. The method, then: (§1) Considering the reported cytotoxic activities of some sesquiterpenes, cyclopentenone derivatives, and cembranoid diterpenes, all the compounds were evaluated for their cytotoxic activities against HeLa (human cervical carcinoma), HCT-116 (human colon carcinoma), BEL-7402 (human hepatocellular carcinoma), K562 (human leukemia), and Jurkat (human acute leukemia T) tumor cell lines.
A general note: The SRB assay estimates cell density from bound dye.

A short description of data set [2]: Cytotoxicity assay, SRB method, HCT-116. The following applies: human, HCT-116 cells (human colon carcinoma); HCT-116, SRB method, adriamycin positive control; read-out: cytotoxicity IC50 against HCT-116 cell lines. The class given is cell-based. As to the method:
as §1

In data set [3] the target is T1, protein tyrosine phosphatase 1B (PTP1B) (Homo sapiens, UniProt P18031).
T1 sequence (P18031 1-435): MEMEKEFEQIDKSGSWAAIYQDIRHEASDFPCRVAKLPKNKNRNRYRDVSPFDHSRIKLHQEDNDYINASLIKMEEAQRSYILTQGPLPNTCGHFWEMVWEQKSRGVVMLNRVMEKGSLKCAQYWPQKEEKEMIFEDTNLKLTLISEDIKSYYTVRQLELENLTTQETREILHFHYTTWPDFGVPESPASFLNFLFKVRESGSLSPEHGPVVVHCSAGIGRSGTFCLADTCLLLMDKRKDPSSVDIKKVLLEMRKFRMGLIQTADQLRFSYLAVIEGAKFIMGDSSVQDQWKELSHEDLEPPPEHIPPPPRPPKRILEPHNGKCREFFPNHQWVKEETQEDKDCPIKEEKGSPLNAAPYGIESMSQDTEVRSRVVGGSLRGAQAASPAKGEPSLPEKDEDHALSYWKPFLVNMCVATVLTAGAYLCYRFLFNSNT
Nature of the data set: PTP1B inhibitory assay, pNPP method.
Method: These isolated sesquiterpenes were also assessed for their inhibitory activities against PTP1B.

Setting [4] is: HeLa cells (human cervical carcinoma).

Turning to `C=C(C)C1CC2=C(C(=O)OC)C=C(O2)C(O)C(C)(O)CC2C=C(C(=O)O2)C(OC(C)=O)C1` (stereo not shown) [Compound 14, Molestin E], the IC50 in data set [1] was found to be 5.26 µM; in data set [2], 8.37 µM.
In the case of `COC12CCC(C)(O)C1=CC(=O)CCC2C` (stereo not shown) [Compound 5, Molestin D], in data set [3], half-maximal inhibition (IC50) was put at 344 µM.
For the compound `C=C(C)[C@@H]1C/C=C2\C(=O)O[C@@H](C[C@]3(C)CC(=O)[C@@H](CC(=O)C1)O3)[C@@H]2O` [Compound 18, sinuleptolide], the IC50 in data set [1] (setting [4]) amounted to 6.1 µM.
In the case of `CC(C)C1=CC2=C(C(=O)C[C@@]2(C)O)[C@H](C)CC1` [Compound 4, Molestin C], the IC50 in data set [3] was determined as 218 µM.
Turning to `C=C/C(C)=C\CCC(C)Cc1cc(C(=O)O)co1` (stereo not shown) [Compound 8, (5′Z)-5-(2′,6′-Dimethylocta-5′,7′-dienyl)-furan-3-carboxylic acid], in data set [3], it took 1.24 µM to reach half-maximal inhibition (IC50).
On to `C=C(C)[C@@H]1C/C=C2\C(=O)O[C@@H](C[C@]3(C)CC(=O)[C@H](CC(=O)C1)O3)[C@@H]2O` [Compound 17, 5-epi-sinuleptolide], for which the IC50 in data set [1] (setting [4]) stood at 6.66 µM.
